Data as given in patent publication US20030181408A1, “Genes essential for microbial proliferation and antisense thereto” (priority 1999, published 2003).
Values after ≈ are worked out from the molar mass of the structure shown.

What was measured:
[1] = system: E. coli transformed with an IPTG-inducible plasmid containing antisense clones; experiment: Cell based assay: antibiotic sensitivity of E. coli expressing sublethal antisense RNA (Example 9)
Text: The effectiveness of the above cell based assay was validated using constructs expressing antisense RNA to the proliferation required E. coli genes rplL, rplJ, and rplW encoding ribosomal proteins L7/L12, L10 and L23 respectively. These proteins are part of the protein synthesis apparatus of the cell and as such are required for proliferation. These constructs were used to test the effect of antisense expression on cell sensitivity to antibiotics known to bind to the ribosome and thereby inhibit protein synthesis. Constructs expressing antisense RNA to several other genes (elaD, visC, yohh, and atpE/B), the products of which are not involved in protein synthesis were used for comparison.
First pLex5BA (Krause et al., J. Mol. Biol. 274: 365 (1997), the disclosure of which is incorporated herein by reference in its entirety) expression vectors containing antisense constructs to either rplW or to elaD were introduced into separate E. coli cell populations. Vector introduction is a technique well known to those of ordinary skill in the art. The expression vectors of this example contain IPTG inducible promoters that drive the expression of the antisense RNA in the presence of the inducer. However, those skilled in the art will appreciate that other inducible promoters may also be used. Suitable expression vectors are also well known in the art. The E. coli antisense clones encoding ribosomal proteins L7/L12, L10 and L23 were used to test the effect of antisense expression on cell sensitivity to the antibiotics known to bind to these proteins. […]
The cell populations were exposed to a range of IPTG concentrations in liquid medium to obtain the growth inhibitory dose curve for each clone (FIG. 1). First, seed cultures were grown to a particular turbidity that is measured by the optical density (OD) of the growth solution. […] The cells were grown for up to 15 hours and the extent of growth was determined by measuring the optical density of the cultures at 600 nm. […]

[2] = system: bacterial strain engineered for expression of an antisense against rplL and rplJ (50S ribosomal subunit proteins); experiment: microbe, parasite or virus in culture; assay type: cell-based, E. coli; details: read-out: IC50 (+I)
Experimental: Antibiotics of various chemical classes and modes of action were purchased from Sigma Chemicals (St. Louis, Mo.). Stock solutions were prepared by dissolving each antibiotic in an appropriate aqueous solution based on information provided by the manufacturer. The final working solution of each antibiotic contained no more than 0.2% (w/v) of any organic solvent. To determine their potency against a bacterial strain engineered for expression of an antisense against a proliferation-required gene encoding 50S ribosomal protein, each antibiotic was serially diluted two or three fold in growth medium supplemented with the appropriate antibiotic for maintenance of the anti-sense construct. At least ten dilutions were prepared for each antibiotic. 25 μL aliquots of each dilution were transferred to discrete wells of a 384-well microplate (the assay plate) using a multi-channel pipette. Quadruplicate wells were used for each dilution of an antibiotic under each treatment condition (plus and minus inducer). Each assay plate contained twenty wells for cell growth controls (growth media replacing antibiotic), ten wells for each treatment (plus and minus inducer, in this example IPTG). Assay plates were usually divided into the two treatments: half the plate containing induced cells and an appropriate concentrations of inducer (in this example IPTG) to maintain the state of induction, the other half containing non-induced cells in the absence of IPTG.
Cells for the assay were prepared as follows. Bacterial cells containing a construct, from which expression of antisense nucleic acid against rplL and rplJ, which encode proliferation-required 50S ribosomal subunit proteins, is inducible in the presence of IPTG, were grown into exponential growth (OD600 0.2 to 0.3) and then diluted 1:100 into fresh media containing either 400 μM or 0 μM inducer (IPTG). These cultures were incubated at 37° C. for 2.5 hr. After a 2.5 hr incubation, induced and non-induced cells were respectively diluted into an assay medium at a final OD600 value of 0.0004. The medium contained an appropriate concentration of the antibiotic for the maintenance of the anti-sense construct. In addition, the medium used to dilute induced cells was supplemented with 800 μM IPTG so that addition to the assay plate would result in a final IPTG concentration of 400 μM. Induced and non-induced cell suspensions were dispensed (25 μl/well) into the appropriate wells of the assay plate as discussed previously. The plate was then loaded into a plate reader, incubated at constant temperature, and cell growth was monitored in each well by the measurement of light scattering at 595 nm. Growth was monitored every 5 minutes until the cell culture attained a stationary growth phase. For each concentration of antibiotic, a percentage inhibition of growth was calculated at the time point corresponding to mid-exponential growth for the associated control wells (no antibiotic, plus or minus IPTG). For each antibiotic and condition (plus or minus IPTG), a plot of percent inhibition versus log of antibiotic concentration was generated and the IC50 determined.

[3] = system: E. coli; experiment: Inhibition of E. coli proliferation after IPTG induction of antisense clones (liquid growth curves, dilution spotting on plates); assay type: cell-based, Escherichia coli; details: 1 mM IPTG
Experimental: (§1) To study the effects of transcriptional induction in liquid medium, growth curves were carried out by back diluting cultures 1:200 into fresh media with or without 1 mM IPTG and measuring the OD450 every 30 minutes (min). To study the effects of transcriptional induction on solid medium, 10^2, 10^3, 10^4, 10^5, 10^6, 10^7 and 10^8 fold dilutions of overnight cultures were prepared. Aliquots of from 0.5 to 3 μl of these dilutions were spotted on selective agar plates with or without 1 mM IPTG. After overnight incubation, the plates were compared to assess the sensitivity of the clones to IPTG.
(§2) Molecule No. EcXA059, encoding a portion of the ypjA gene of Escherichia coli, was either transformed directly into Enterobacter cloacae, Salmonella typhimurium and/or Klebsiella pneumoniae or subdloned into an expression vector functional in these species and the subclones transformed into these organisms. Suitable expression vectors are well known in the art. These expression vectors were introduced into Enterobacter cloacae, Salmonella typhimurium and/or Klebsiella pneumoniae cells that were then assayed for growth inhibition according to the method of Example 1. After growth in liquid culture, cells were plated at various serial dilutions and a score determined by calculating the log difference in growth for INDUCED vs. UNINDUCED antisense RNA expression as determined by the maximum 10 fold dilution at which a colony was observed. If there was no effect of antisense RNA expression in one organism, the clone is given a score of zero “0” in that organism. In contrast, a score of “8” means that 10^8 times more cells were required to observe a colony formed on the induced state than in the non-induced state under the conditions used and in that organism.

[4] = system: Enterobacter cloacae; experiment: Growth inhibition by IPTG-induced antisense RNA expression in Enterobacter cloacae (induced vs. uninduced serial dilution plating); assay type: cell-based
Experimental: as §1, §2
(§3) Expression vectors which inhibited growth of E. coli upon induction of antisense RNA expression with IPTG were transformed directly into Enterobacter cloacae, Klebsiella pneumonia or Salmonella typhimurium. The transformed cells were then assayed for growth inhibition according to the method of Example 1. After growth in liquid culture, cells were plated at various serial dilutions and a score determined by calculating the log difference in growth for INDUCED vs. UNINDUCED antisense RNA expression as determined by the maximum 10 fold dilution at which a colony was observed. If there was no effect of antisense RNA expression in a microorganism, the clone is minus in Table V below. In contrast, a positive in Table V below means that at least 10 fold more cells were required to observe a colony on the induced plate than on the non-induced plate under the conditions used and in that microorganism.

[5] = system: Salmonella typhimurium; experiment: Growth inhibition by IPTG-induced antisense RNA expression in Salmonella typhimurium (induced vs. uninduced serial dilution plating); assay type: cell-based
Experimental: as §1, §2, §3

[6] = system: Klebsiella pneumoniae; experiment: Growth inhibition by IPTG-induced antisense RNA expression in Klebsiella pneumoniae (induced vs. uninduced serial dilution plating); assay type: cell-based
Experimental: as §1, §2, §3

In the case of CC1COc2c(N3CCN(C)CC3)c(F)cc3c(=O)c(C(=O)O)cn1c23 (centres unmarked) [Ofloxacin], the “sensitivity to antibiotics which do not inhibit protein synthesis” value ([1]; clone expressing antisense to rplL and rplJ) is reported as “does not show increased sensitivity” and the IC50 [2] is reported as 0.0458 µg/mL (≈ 0.127 µM).

In the case of CN(C)[C@@H]1C(O)=C(C(N)=O)C(=O)[C@@]2(O)C(O)=C3C(=O)c4c(O)cccc4[C@@](C)(O)[C@H]3C[C@@H]12 [Tetracycline], the “sensitivity to tetracycline (tetracycline IC50 with IPTG vs. without IPTG)” value ([1]; cells expressing antisense to genes not involved in protein synthesis (atpB/E, visC, elaD, yohH)) is reported as “did not show the same increased sensitivity” and the “sensitivity to tetracycline (tetracycline IC50 with IPTG vs. without IPTG)” value ([1]; cells with reduced levels of L7/L12 (rplL, rplJ) or L23 (rplW), IPTG giving 50% growth inhibition) is reported as “increased sensitivity”.

B1: EcXA083: antisense clone insert, E. coli gene hrpB (nucleic acid, listed as Escherichia coli)
DNA: CGGCTTAGCGCGTCGTTGGCATCGAGCATCGCTCCCATGCCGTTTGCCAGTTGATAGCGTCCATCTTGCC
In the case of B1, the “effect of antisense expression on E. coli growth after IPTG induction” value [3] is reported as “reduction in cell growth”, the “Sensitivity of E. cloacae to antisense nucleic acid (growth inhibition, induced vs. uninduced)” value [4] is reported as “−” and the “Sensitivity of S. typhimurium to antisense nucleic acid (growth inhibition, induced vs. uninduced)” value [5] is reported as “−”. The “Sensitivity of K. pneumoniae to antisense nucleic acid (growth inhibition, induced vs. uninduced)” value [6] was “−”.
